Consider 6 molecules from ChEMBL document CHEMBL5126638, “Resin Glycosides from Operculina hamiltonii and Their Synergism with Vinblastine in Cancer Cells” (J Nat Prod, 2022).

What all share (format): functional, cell-based
Experiment [1] has as its system MCF7. Description: Cytotoxicity in human MCF7 cells assessed as growth inhibition level after 48 hrs by SRB assay. The conditions noted are these: MCF7, 48 h. For orientation: Sulforhodamine B stains cellular protein and so reports cell mass.
Experiment [2] has as its system MCF7-VP. Description: Cytotoxicity in human MCF7/Vin cells assessed as growth inhibition level after 48 hrs by SRB assay.
Experiment [3] concerns HeLa. Description: Cytotoxicity in human HeLa cells assessed as growth inhibition level after 48 hrs by SRB assay.
Experiment [4] deals with HCT-116. Description: Cytotoxicity in human HCT-116 cells assessed as growth inhibition level after 48 hrs by SRB assay. The following applies: HCT-116, 48 h.
The test system of experiment [5] is MCF7. Description: Enhancement of 0.003 uM vinblastine-induced cytotoxicity in human MCF7 cells assessed as growth inhibition level after 48 hrs by SRB assay. The following applies: MCF7, 48 h.
In experiment [6] the test system is MCF7-VP. Nature of the experiment: Enhancement of 0.003 uM vinblastine-induced cytotoxicity in human MCF7/Vin cells assessed as growth inhibition level after 48 hrs by SRB assay.
The test system of experiment [7] is HeLa. Description: Enhancement of 0.003 uM vinblastine-induced cytotoxicity in human HeLa cells assessed as growth inhibition level after 48 hrs by SRB assay.
In experiment [8] the test system is HCT-116. Description: Enhancement of 0.003 uM vinblastine-induced cytotoxicity in human HCT-116 cells assessed as growth inhibition level after 48 hrs by SRB assay. The conditions noted are these: HCT-116, 48 h.
Experiment [9] deals with MCF7. Nature of the experiment: Enhancement of 0.4 uM vinblastine-induced cytotoxicity in human MCF7 cells assessed as growth inhibition level at 25 uM after 48 hrs by Microscopic visualization based assay.

Activity calls are given as the source filed them. The calls are words filed in the database; no cut-off is given here.

By IC50 is commonly meant the midpoint of a concentration-inhibition curve. For `CC[C@]1(O)C[C@@H]2CN(CCc3c([nH]c4ccccc34)[C@@](C(=O)OC)(c3cc4c(cc3OC)N(C)[C@H]3[C@@](O)(C(=O)OC)[C@H](OC(C)=O)[C@]5(CC)C=CCN6CC[C@]43[C@@H]65)C2)C1` [VINBLASTINE], the IC50 with MCF7 [1] was determined as 0.035 µM; in the experiment on MCF7-VP [2], 1.63 µM; in the experiment on HeLa [3] it was 0.004 µM; in the experiment on HCT-116 [4], 0.3 µM.

Take `CCCCCCCCCCCC(=O)O[C@H]1[C@H](O[C@@H]2[C@@H](O)[C@@H](O)[C@H](O[C@H]3[C@H](O[C@@H](CCCCC)CCCCCCCCCC(=O)OC)O[C@H](C)[C@H](O)[C@@H]3O)O[C@H]2C)O[C@@H](C)[C@H](O[C@@H]2O[C@@H](C)[C@H](O)[C@@H](O)[C@H]2O)[C@H]1O[C@@H]1O[C@H](CO)[C@@H](O)[C@H](O)[C@H]1O`: the 50% inhibitory concentration (IC50) with MCF7 [5] is 4.4 µM; in the experiment with MCF7-VP [6], 3.1 µM; in the experiment on HeLa [7], 14.6 µM; in the experiment on HCT-116 [8] it was 6.8 µM; in the experiment on MCF7 [1] it was more than 25 µM; in the experiment with MCF7-VP [2], more than 25 µM. For the same molecule, the 50% inhibitory concentration (IC50) with HeLa [3] and in the experiment on HCT-116 [4] was more than 25 µM each time. In addition, the outcome in the experiment on MCF7 [9] was Active.

In the case of `CCCCCCCCCC(=O)O[C@H]1[C@H](O[C@@H]2[C@@H](O)[C@@H](O)[C@H](O[C@H]3[C@H](O[C@@H](CCCCC)CCCCCCCCCC(=O)OC)O[C@H](C)[C@H](O)[C@@H]3O)O[C@H]2C)O[C@@H](C)[C@H](O[C@@H]2O[C@@H](C)[C@H](O)[C@@H](O)[C@H]2O)[C@H]1O[C@@H]1O[C@H](CO)[C@@H](O)[C@H](O)[C@H]1O`, the IC50 in the experiment with MCF7 [5] is 4.7 µM; in the experiment with MCF7-VP [6] it was 10 µM; with HeLa [7], 26.1 µM; in the experiment with HCT-116 [8] it was 8.6 µM; in the experiment with MCF7 [1] it was more than 25 µM; with MCF7-VP [2], more than 25 µM. The IC50 in the experiment on HeLa [3] and in the experiment on HCT-116 [4] was more than 25 µM in each case. Further, the result in the experiment with MCF7 [9] was Active.

Consider `CCCCCCCCCCCC(=O)O[C@H]1[C@H](O[C@@H]2[C@H]3OC(=O)CCCCCCCCC[C@H](CCCCC)O[C@@H]4O[C@H](C)[C@H](O)[C@H](O)[C@H]4O[C@H](O[C@H]2C)[C@@H]3O)O[C@@H](C)[C@H](O[C@@H]2O[C@@H](C)[C@H](O)[C@@H](O)[C@H]2O)[C@H]1O[C@@H]1O[C@H](CO)[C@@H](O)[C@H](O)[C@H]1O`, for which the IC50 with MCF7 [5] was 15.2 µM; in the experiment with MCF7-VP [6], 18.4 µM; in the experiment with HeLa [7], 26.6 µM; in the experiment with HCT-116 [8], 17.7 µM; in the experiment with MCF7 [1], more than 25 µM; with MCF7-VP [2], more than 25 µM. Besides, the IC50 in the experiment with HeLa [3] and with HCT-116 [4] was more than 25 µM throughout. Moreover, in the experiment on MCF7 [9], the outcome was Active.

For the molecule `COc1cc2c(c(OC)c1OC)-c1ccc(OC)c(=O)cc1[C@@H](NC(C)=O)CC2` [COLCHICINE], the IC50 with MCF7-VP [2] is 1.57 µM; in the experiment with HeLa [3] it was 0.006 µM; with HCT-116 [4] it was 0.08 µM.

For the molecule `CCCCCCCCCC(=O)O[C@H]1[C@H](O[C@@H]2[C@H]3OC(=O)CCCCCCCCC[C@H](CCCCC)O[C@@H]4O[C@H](C)[C@H](O)[C@H](O)[C@H]4O[C@H](O[C@H]2C)[C@@H]3O)O[C@@H](C)[C@H](O[C@@H]2O[C@@H](C)[C@H](O)[C@@H](O)[C@H]2O)[C@H]1O[C@@H]1O[C@H](CO)[C@@H](O)[C@H](O)[C@H]1O`, the IC50 is 12.3 µM with MCF7 [5]; 19.4 µM in the experiment with MCF7-VP [6]; 23.8 µM in the experiment with HeLa [7]; 12.8 µM in the experiment on HCT-116 [8]; more than 25 µM with MCF7 [1]; more than 25 µM in the experiment on MCF7-VP [2]. The IC50 with HeLa [3] and with HCT-116 [4] was more than 25 µM in each case. In addition, the outcome with MCF7 [9] was Active.
